≈ marks a conversion by molar mass, not a printed value.
Test: Solubility of the organic compound in nonpolar / polar solvent (added to 1.0 mL solvent to saturation point)
Type: physicochemical
Text: The raw material(s) is not particularly limited as long as the raw material(s) contains the organic compound, and the raw materials may contain the organic compound and an additive. The additive is not particularly limited as long as an object of a present inventive subject matter is not interfered with, and may be a known additive. The mixing ratio of the additive in the raw materials is not particularly limited, however, preferably in a range of 0.00001 mol % to 30 mol %, and further preferably in a range of 0.0001 mol % to 10 mol %. […] According to a present inventive subject matter, the organic compound is added into the polar solvent that is 1.0 mL to saturation point, and the remaining organic compound in the polar solvent was measured by deducting the remaining amount of organic compound in the polar solvent from the total amount of added organic compound in the polar solvent. […] According to a present inventive subject matter, the organic compound is added into the nonpolar solvent that is 1.0 mL to saturation point, and the remaining organic compound in the nonpolar solvent was measured by deducting the remaining amount of organic compound in the nonpolar solvent from the total amount of added organic compound in the nonpolar solvent. […]

dissolution into the solvent (Comparative Example 4, only 2-Pyrrolidone used as the solvent of the raw-material solution): hardly dissolved
solubility to mesitylene (nonpolar solvent mesitylene, temperature of 25° C.): 1500 µg/mL (≈ 2080 µM)
Structure (SMILES): c12c3c4c5c1c1c6c7c2c2c8c3c3c9c4c4c%10c5c5c1c1c6c6c%11c7c2c2c7c8c3c3c8c9c4c4c9c%10c5c5c1c1c6c6c%11c2c2c7c3c3c8c4c4c9c5c1c1c6c2c3c41 [C60 fullerene]
